≈ marks a conversion by molar mass, not a printed value. Read-outs that look alike come from different tables or passages of the source.
Experiments:
[1] = test system: Mycobacterium tuberculosis H37Rv; experiment: Alamar blue (MABA) test, MIC on Mycobacterium tuberculosis H37Rv; format: cell-based; conditions: read-out: MIC (μM) MTb H37Rv
Streptococcus pneumoniae = experiment: ATP bioluminescence test, inhibition of bacterial growth of Streptococcus pneumoniae (IC80); format: cell-based; conditions: read-out: IC80 (μM) S. pneumoniae
Protocol: Measurement of the Inhibitory Activity (IC80) of the Compounds According to the Invention Towards Streptococcus pneumoniae
The test used is a bioluminescence test, the aim of which is to measure the inhibition of bacterial growth of Streptococcus pneumoniae by quantification of the amount of adenosine triphosphate (ATP). Specifically, ATP is a major and mandatory energy intermediate of very many reactions of cell metabolism which characterizes live media.
ATP quantification is performed at the end of the test by using an enzyme, luciferase, which, in the presence of ATP and of a specific substrate, luciferin, produces quantifiable light.
Thus, in the presence of luciferin and luciferase at […] concentrations, the value obtained in relative light units (RLU) will make it possible, by means of a calibration, to estimate the amount of ATP and thus deduce the number of live bacteria at the end of the incubation period.
Thus, the more the RLU value obtained at the end of the test tends towards zero, the more the product inhibits the total growth of bacteria.
The results (Table 3) are expressed in IC80.

[2] = minimum inhibitory concentration, Alamar blue, strain H37Rv
[3] = 80% inhibition of bacterial growth, ATP/luciferase readout

Compound	MIC [1, 2] [µM]	other results
CON=C1C[C@@H](C)O[C@@H](O[C@@H]2[C@@H](C)[C@H](O[C@H]3C[C@@H](C)N(C)C[C@H](C)O3)[C@@H](C)C(=O)O[C@H](C(C)CO[C@@H]3O[C@H](C)[C@@H](O)[C@@H](OC)[C@H]3OC)[C@H](C)[C@@H](OC(=O)CC(C)C)[C@@H](C)C(=O)[C@@](C)(O)C[C@@H]2C)[C@@H]1O (single isomer, unassigned) [Compound 1-a]	2.05 (≈ 2.03 µg/mL)	
CON=C1C[C@@H](C)O[C@@H](O[C@@H]2[C@@H](C)[C@H](O[C@H]3C[C@@H](C)N(C)C[C@H](C)O3)[C@@H](C)C(=O)O[C@H](C(C)CO[C@@H]3O[C@H](C)[C@@H](O)[C@@H](OC)[C@H]3OC)[C@H](C)[C@@H](OC(=O)CC(C)C)[C@@H](C)C(=O)[C@@](C)(OC(=O)NC(C)(C)CNS(=O)(=O)c3ccccc3[N+](=O)[O-])C[C@@H]2C)[C@@H]1O (single isomer, unassigned) [Compound 5-a]	0.34 (≈ 0.438 µg/mL)	
CON=C1C[C@@H](C)O[C@@H](O[C@@H]2[C@@H](C)[C@H](O[C@H]3C[C@H](C)N(C)C[C@H](C)O3)[C@@H](C)C(=O)O[C@H](C(C)CO[C@@H]3O[C@H](C)[C@@H](O)[C@@H](OC)[C@H]3OC)[C@H](C)[C@@H](OC(=O)CC(C)C)[C@@H](C)C(=O)[C@@](C)(OC(=O)NC(C)(C)CNS(=O)(=O)c3ccccc3[N+](=O)[O-])C[C@@H]2C)[C@@H]1O (single isomer, unassigned) [Compound 5-b]	0.53 (≈ 0.683 µg/mL)	
CON=C1C[C@@H](C)O[C@@H](O[C@@H]2[C@@H](C)[C@H](O[C@H]3C[C@@H](C)N(C)C[C@H](C)O3)[C@@H](C)C(=O)O[C@H](C(C)CO[C@@H]3O[C@H](C)[C@@H](O)[C@@H](OC)[C@H]3OC)[C@H](C)[C@@H](OC(=O)CC(C)C)[C@@H](C)C(=O)[C@@](C)(OC(=O)NCc3ccccc3)C[C@@H]2C)[C@@H]1O (single isomer, unassigned) [Compound 7-a]	0.54 (≈ 0.606 µg/mL)	
CON=C1C[C@@H](C)O[C@@H](O[C@@H]2[C@@H](C)[C@H](O[C@H]3C[C@H](C)N(C)C[C@H](C)O3)[C@@H](C)C(=O)O[C@H](C(C)CO[C@@H]3O[C@H](C)[C@@H](O)[C@@H](OC)[C@H]3OC)[C@H](C)[C@@H](OC(=O)CC(C)C)[C@@H](C)C(=O)[C@@](C)(OC(=O)NCc3ccccc3)C[C@@H]2C)[C@@H]1O (single isomer, unassigned) [Compound 7-b]	0.52 (≈ 0.584 µg/mL)	
CON=C1C[C@@H](C)O[C@@H](O[C@@H]2[C@@H](C)[C@H](O[C@H]3C[C@@H](C)NC[C@H](C)O3)[C@@H](C)C(=O)O[C@H](C(C)CO[C@@H]3O[C@H](C)[C@@H](O)[C@@H](OC)[C@H]3OC)[C@H](C)[C@@H](OC(=O)CC(C)C)[C@@H](C)C(=O)[C@@](C)(OC(=O)NCc3ccccc3)C[C@@H]2C)[C@@H]1O (single isomer, unassigned) [Compound 8-a]	0.56 (≈ 0.621 µg/mL)	IC80 (Streptococcus pneumoniae; [3]): 1.84 µM
CON=C1C[C@@H](C)O[C@@H](O[C@@H]2[C@@H](C)[C@H](O[C@H]3C[C@H](C)N(C)C[C@H](C)O3)[C@@H](C)C(=O)O[C@H](C(C)CO[C@@H]3O[C@H](C)[C@@H](O)[C@@H](OC)[C@H]3OC)[C@H](C)[C@@H](OC(=O)CC(C)C)[C@@H](C)C(=O)[C@@](C)(OC(=O)NCCc3ccncc3)C[C@@H]2C)[C@@H]1O (stereo partly drawn) [Compound 2, (2R,3S,4R,5R,7S,9S,10S,11R,12S,13R)-2-(1-{[(2R,3R,4R,5R,6R)-5-hydroxy-3,4-dimethoxy-6-methyltetrahydro-2H-pyran-2-yl]oxy}propan-2-yl)-10-{[(2S,3R,6R)-3-hydroxy-4-(methoxyimino)-6-methyltetrahydro-2H-pyran-2-yl]oxy}-3,5,7,9,11,13-hexamethyl-6,14-dioxo-7-({[2-(pyridin-4-yl)ethyl]carbamoyl}oxy)-12-{[(2S,5S,7R)-2,4,5-trimethyl-1,4-oxazepan-7-yl]oxy}oxacyclotetradecan-4-yl 3-methylbutanoate]	1.25 (≈ 1.42 µg/mL)	IC80 (Streptococcus pneumoniae; [3]): 0.28 µM
CON=C1C[C@@H](C)O[C@@H](O[C@@H]2[C@@H](C)[C@H](O[C@H]3C[C@@H](C)N(C)C[C@H](C)O3)[C@@H](C)C(=O)O[C@H](C(C)CO[C@@H]3O[C@H](C)[C@@H](O)[C@@H](OC)[C@H]3OC)[C@H](C)[C@@H](OC(=O)CC(C)C)[C@@H](C)C(=O)[C@@](C)(OC(=O)N(C)C)C[C@@H]2C)[C@@H]1O (stereo partly drawn) [Compound 3, (2R,3S,4R,5R,7S,9S,10S,11R,12S,13R)-7-[(dimethylcarbamoyl)oxy]-2-(1-{[(2R,3R,4R,5R,6R)-5-hydroxy-3,4-dimethoxy-6-methyltetrahydro-2H-pyran-2-yl]oxy}propan-2-yl)-10-{[(2S,3R,6R)-3-hydroxy-4-(methoxyimino)-6-methyltetrahydro-2H-pyran-2-yl]oxy}-3,5,7,9,11,13-hexamethyl-6,14-dioxo-12-{[(2S,5R,7R)-2,4,5-trimethyl-1,4-oxazepan-7-yl]oxy}oxacyclotetradecan-4-yl 3-methylbutanoate]		MIC ([1]; H37RV): 1.27 µM (≈ 1.35 µg/mL)
CON=C1C[C@@H](C)O[C@@H](O[C@@H]2[C@@H](C)[C@H](O[C@H]3CC(C)N(C)C[C@H](C)O3)[C@@H](C)C(=O)O[C@H](C(C)CO[C@@H]3O[C@H](C)[C@@H](O)[C@@H](OC)[C@H]3OC)[C@H](C)[C@@H](OC(=O)CC(C)C)[C@@H](C)C(=O)[C@@](C)(OC(=O)NC(C)(C)CNS(=O)(=O)c3cn[nH]c3[N+](=O)[O-])C[C@@H]2C)[C@@H]1O (stereo partly drawn) [Compound 4]	0.21 (≈ 0.268 µg/mL)	
CON=C1C[C@@H](C)O[C@@H](O[C@@H]2[C@@H](C)[C@H](O[C@H]3CC(C)N(CCF)C[C@H](C)O3)[C@@H](C)C(=O)O[C@H](C(C)CO[C@@H]3O[C@H](C)[C@@H](O)[C@@H](OC)[C@H]3OC)[C@H](C)[C@@H](OC(=O)CC(C)C)[C@@H](C)C(=O)[C@@](C)(OC(=O)NCc3ccccc3)C[C@@H]2C)[C@@H]1O (stereo partly drawn) [Compound 6, (2R,3S,4R,5R,7S,9S,10S,11R,12S,13R)-7-[(benzylcarbamoyl)oxy]-12-{[(2S,7R)-4-(2-fluoroethyl)-2,5-dimethyl-1,4-oxazepan-7-yl]oxy}-2-(1-{[(2R,3R,4R,5R,6R)-5-hydroxy-3,4-dimethoxy-6-methyltetrahydro-2H-pyran-2-yl]oxy}propan-2-yl)-10-{[(2S,3R,6R)-3-hydroxy-4-(methoxyimino)-6-methyltetrahydro-2H-pyran-2-yl]oxy}-3,5,7,9,11,13-hexamethyl-6,14-dioxooxacyclotetradecan-4-yl 3-methylbutanoate]	0.91 (≈ 1.05 µg/mL)	
CON=C1C[C@@H](C)O[C@@H](O[C@@H]2[C@@H](C)[C@H](O[C@H]3C[C@H](C)N(CC(C)(C)O)C[C@H](C)O3)[C@@H](C)C(=O)O[C@H]([C@@H](C)CO[C@@H]3O[C@H](C)[C@@H](O)[C@@H](OC)[C@H]3OC)[C@H](C)[C@@H](OC(=O)CC(C)C)[C@@H](C)C(=O)[C@@](C)(OC(=O)NCc3ccccc3)C[C@@H]2C)[C@@H]1O [Compound 11]	0.63 (≈ 0.744 µg/mL)	
CON=C1C[C@@H](C)O[C@@H](O[C@@H]2[C@@H](C)[C@H](O[C@H]3C[C@@H](C)N(CC(C)(C)O)C[C@H](C)O3)[C@@H](C)C(=O)O[C@H]([C@@H](C)CO[C@@H]3O[C@H](C)[C@@H](O)[C@@H](OC)[C@H]3OC)[C@H](C)[C@@H](OC(=O)CC(C)C)[C@@H](C)C(=O)[C@@](C)(OC(=O)NCc3ccccc3)C[C@@H]2C)[C@@H]1O [Compound 12]	0.6 (≈ 0.708 µg/mL)	
CON=C1C[C@@H](C)O[C@@H](O[C@@H]2[C@@H](C)[C@H](O[C@H]3C[C@H](C)N(C)C[C@H](C)O3)[C@@H](C)C(=O)O[C@H]([C@@H](C)CO[C@@H]3O[C@H](C)[C@@H](O)[C@@H](OC)[C@H]3OC)[C@H](C)[C@@H](OC(=O)CC(C)C)[C@@H](C)C(=O)[C@@](C)(OC(=O)NC(C)(C)CNC(=O)c3cnc(O)cn3)C[C@@H]2C)[C@@H]1O [Compound 14]	0.67 (≈ 0.821 µg/mL)	IC80 (Streptococcus pneumoniae; [3]): 2.27 µM
CON=C1C[C@@H](C)O[C@@H](O[C@@H]2[C@@H](C)[C@H](O[C@H]3C[C@H](C)N(CCc4ccncc4)C[C@H](C)O3)[C@@H](C)C(=O)OC([C@@H](C)CO[C@@H]3O[C@H](C)[C@@H](O)[C@@H](OC)[C@H]3OC)[C@H](C)[C@@H](OC(=O)CC(C)C)[C@@H](C)C(=O)[C@@](C)(OC(=O)NCc3ccccc3)C[C@@H]2C)[C@@H]1O (stereo partly drawn) [Compound 24]	0.48 (≈ 0.582 µg/mL)	IC80 (Streptococcus pneumoniae; [3]): 0.88 µM
CON=C1C[C@@H](C)O[C@@H](O[C@@H]2[C@@H](C)[C@H](O[C@H]3CC(C)N(CC(=O)Nc4ccc5ccc(C)nc5n4)C[C@H](C)O3)[C@@H](C)C(=O)O[C@H]([C@@H](C)CO[C@@H]3O[C@H](C)[C@@H](O)[C@@H](OC)[C@H]3OC)[C@H](C)[C@@H](OC(=O)CC(C)C)[C@@H](C)C(=O)[C@@](C)(OC(=O)NCc3ccccc3)C[C@@H]2C)[C@@H]1O (stereo partly drawn) [Compound 51]	0.29 (≈ 0.379 µg/mL)	
CON=C1C[C@@H](C)O[C@@H](O[C@@H]2[C@@H](C)[C@H](O[C@H]3C[C@@H](C)N(C)CC(C)O3)[C@@H](C)C(=O)O[C@H]([C@@H](C)CO[C@@H]3O[C@H](C)[C@@H](O)[C@@H](OC)[C@H]3OC)[C@H](C)[C@@H](OC(=O)CC(C)C)[C@@H](C)C(=O)[C@@](C)(OC(=O)NC(C)(C)CNS(=O)(=O)c3ccccc3)C[C@@H]2C)[C@@H]1O (stereo partly drawn) [Compound 70]	0.46 (≈ 0.572 µg/mL)	
CN[C@H](CC(C)C)C(=O)N[C@H]1C(=O)N[C@@H](CC(N)=O)C(=O)N[C@H]2C(=O)N[C@H]3C(=O)N[C@H](C(=O)N[C@H](C(=O)O)c4cc(O)cc(O)c4-c4cc3ccc4O)[C@H](O)c3ccc(c(Cl)c3)Oc3cc2cc(c3O[C@@H]2O[C@H](CO)[C@@H](O)[C@H](O)[C@H]2O[C@H]2C[C@](C)(N)[C@H](O)[C@H](C)O2)Oc2ccc(cc2Cl)[C@H]1O [vancomycin, reference compound]		IC80 (Streptococcus pneumoniae): 0.14 µM

From patent publication US20150210729A1, “MACROLIDE DERIVATIVES, PREPARATION THEREOF AND THERAPEUTIC USE THEREOF” (priority 2012, published 2015)
